Data published in patent US20050282743A1, “Molecular interactions in cells” (Arbor Vita Corporation, priority 2001, published 2005).
Ends that are not written are not given here. Peptide text beside a SMILES is read from it. * marks the point of attachment. Biotin = O=C1N[C@H]2[C@H](CS[C@H]2CCCCC(=O)*)N1

Experiments:
Format in all cases: binding
[1] = biological target: T1, PDZ protein (GST-PDZ fusion) (Homo sapiens, UniProt Q13796); experiment: G' assay (10 uM PL peptide), results of TABLE 7 and TABLE 12; conditions: PDZ hAPXL, PDZ Domain 1
T1 construct: made in house; host or cells: E. coli (DH5alpha, BL21 or JM109)
Method in brief: (§1)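 Binding classes derive from A450 nm of bound biotin-tagged PL peptide. A score of 5 needs A450 above 4 in more than two repeats.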

[2] = biological target: T2, PDZ protein (GST-PDZ fusion) (Homo sapiens, UniProt Q13424); experiment: as above; conditions: PDZ Synt. 1 alpha, PDZ Domain 1
T2 construct: made in house; host or cells: E. coli (DH5alpha, BL21 or JM109)
T2 sequence (Q13424 1-505): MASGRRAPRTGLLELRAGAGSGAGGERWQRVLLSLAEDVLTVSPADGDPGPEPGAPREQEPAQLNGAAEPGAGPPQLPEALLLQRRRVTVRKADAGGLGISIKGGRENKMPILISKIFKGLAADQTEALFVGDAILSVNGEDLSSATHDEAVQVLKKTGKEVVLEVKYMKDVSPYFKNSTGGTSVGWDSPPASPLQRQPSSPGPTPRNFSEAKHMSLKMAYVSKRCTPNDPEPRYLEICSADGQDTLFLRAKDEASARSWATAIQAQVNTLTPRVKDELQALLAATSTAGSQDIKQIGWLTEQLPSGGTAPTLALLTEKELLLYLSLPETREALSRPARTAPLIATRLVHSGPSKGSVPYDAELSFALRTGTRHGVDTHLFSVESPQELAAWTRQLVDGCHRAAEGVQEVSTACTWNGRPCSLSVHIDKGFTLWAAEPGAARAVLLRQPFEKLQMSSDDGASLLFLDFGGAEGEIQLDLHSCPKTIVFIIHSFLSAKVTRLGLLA
Method in brief: as §1

[3] = test system: PDZ protein (GST-PDZ fusion); experiment: as above; conditions: PDZ SHANK, PDZ Domain 1
Method in brief: as §1

[4] = biological target: T3, PDZ protein (GST-PDZ fusion) (Homo sapiens, UniProt Q6P0Q8); experiment: as above
T3 construct: made in house; host or cells: E. coli (DH5alpha, BL21 or JM109)
Method in brief: as §1

[5] = biological target: T4, PDZ protein (GST-PDZ fusion) (Homo sapiens, UniProt Q5T2W1); experiment: as above; conditions: PDZ PDZK1, PDZ Domain 2, 3, 4
T4 construct: made in house; host or cells: E. coli (DH5alpha, BL21 or JM109)
T4 sequence (Q5T2W1 1-519): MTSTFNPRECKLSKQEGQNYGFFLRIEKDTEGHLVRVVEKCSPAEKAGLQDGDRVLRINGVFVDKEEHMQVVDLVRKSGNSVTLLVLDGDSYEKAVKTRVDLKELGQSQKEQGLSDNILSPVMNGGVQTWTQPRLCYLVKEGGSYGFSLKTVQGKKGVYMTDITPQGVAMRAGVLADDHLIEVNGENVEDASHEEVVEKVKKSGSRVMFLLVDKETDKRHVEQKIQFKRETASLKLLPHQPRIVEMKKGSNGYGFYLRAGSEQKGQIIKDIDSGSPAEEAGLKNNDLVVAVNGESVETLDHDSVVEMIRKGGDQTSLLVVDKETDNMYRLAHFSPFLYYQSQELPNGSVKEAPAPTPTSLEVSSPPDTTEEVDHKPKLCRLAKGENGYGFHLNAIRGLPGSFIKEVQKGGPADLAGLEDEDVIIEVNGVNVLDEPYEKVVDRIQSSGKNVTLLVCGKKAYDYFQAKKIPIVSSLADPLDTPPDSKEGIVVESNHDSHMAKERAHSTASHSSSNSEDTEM
Method in brief: as §1

[6] = biological target: T5, PDZ protein (GST-PDZ fusion) (Homo sapiens, UniProt P57105); experiment: as above; conditions: PDZ Outer Membrane, PDZ Domain 1
T5 construct: made in house; host or cells: E. coli (DH5alpha, BL21 or JM109)
T5 sequence (P57105 1-145): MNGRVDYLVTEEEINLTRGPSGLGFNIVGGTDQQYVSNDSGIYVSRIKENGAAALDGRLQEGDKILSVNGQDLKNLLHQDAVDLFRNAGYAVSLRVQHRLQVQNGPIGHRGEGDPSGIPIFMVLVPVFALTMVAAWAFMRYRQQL
Method in brief: as §1

[7] = biological target: T6, PDZ protein (GST-PDZ fusion) (Homo sapiens, UniProt Q9P202); experiment: as above; conditions: PDZ KIAA1526, PDZ Domain 1
T6 construct: made in house; host or cells: E. coli (DH5alpha, BL21 or JM109)
T6 sequence (Q9P202 1-907): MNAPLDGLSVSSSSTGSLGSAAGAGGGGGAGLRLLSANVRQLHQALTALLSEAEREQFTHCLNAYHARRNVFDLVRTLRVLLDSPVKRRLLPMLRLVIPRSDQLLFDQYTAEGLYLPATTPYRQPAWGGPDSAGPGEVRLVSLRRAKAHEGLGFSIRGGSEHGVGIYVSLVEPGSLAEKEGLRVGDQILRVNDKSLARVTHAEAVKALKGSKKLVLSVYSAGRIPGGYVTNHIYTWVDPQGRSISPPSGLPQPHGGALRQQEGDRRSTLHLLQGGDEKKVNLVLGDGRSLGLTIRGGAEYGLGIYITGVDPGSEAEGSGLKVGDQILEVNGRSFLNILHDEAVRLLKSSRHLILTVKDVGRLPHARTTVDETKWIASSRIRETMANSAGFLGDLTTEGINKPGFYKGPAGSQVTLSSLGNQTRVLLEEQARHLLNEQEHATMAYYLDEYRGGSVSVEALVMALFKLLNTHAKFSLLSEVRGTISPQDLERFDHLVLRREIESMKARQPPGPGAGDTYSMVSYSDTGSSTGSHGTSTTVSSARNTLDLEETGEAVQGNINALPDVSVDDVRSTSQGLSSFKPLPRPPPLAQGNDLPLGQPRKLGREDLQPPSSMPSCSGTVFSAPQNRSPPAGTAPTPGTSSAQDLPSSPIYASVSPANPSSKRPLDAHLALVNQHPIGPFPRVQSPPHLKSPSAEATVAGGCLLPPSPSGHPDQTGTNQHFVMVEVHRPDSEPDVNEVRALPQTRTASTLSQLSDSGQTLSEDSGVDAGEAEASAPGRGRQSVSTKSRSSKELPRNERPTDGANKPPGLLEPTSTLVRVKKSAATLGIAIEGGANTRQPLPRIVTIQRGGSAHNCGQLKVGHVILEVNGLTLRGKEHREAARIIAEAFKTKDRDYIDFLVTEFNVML
Method in brief: as §1

[8] = biological target: T7, PDZ-domain polypeptide (GST/PDZ fusion protein) (Homo sapiens, UniProt Q6P0Q8); experiment: Apparent affinity (Kd) by titration of PL peptide in the G assay; conditions: PDZ KIAA0807(S), PDZ Domain 1; titration of the PL peptide; read-out: Peptide Optimal Conc (Kd, dissociation constant)
T7 construct: made in house; host or cells: E. coli (DH5alpha, BL21 or JM109)
Description: The third column labeled “Peptide Optimal Concentration” in the tables is a number reflective of the binding interaction between the PL protein and PDZ protein. […] The column labeled “Protein Optimal Concentration” refers to the protein concentration used to assay PL interaction (in ug/ml); a ‘0’ is indicative of 5 ug/ml protein concentration; any other value represents the concentration (in ug/ml) used to determine the dissociation constant for a given interaction.
The “A” and “G” assays described supra can be used to determine the “apparent affinity” of binding of a PDZ ligand peptide to a PDZ-domain polypeptide. Apparent affinity is determined based on the concentration of one molecule required to saturate the binding of a second molecule (e.g., the binding of a ligand to a receptor). Two particularly useful approaches for quantitation of apparent affinity of PDZ-ligand binding are provided infra.
In cases where satisfying the above criteria proves difficult, an alternative approach (infra) can be used.
(1) A fixed concentration of a PDZ-domain polypeptide and increasing concentrations of a labeled PL peptide (labeled with, for example, biotin or fluorescein, see TABLE 9 for representative peptide amino acid sequences) are mixed together in solution and allowed to react. In certain assays, peptide concentrations are 0.1 uM, 1 uM, 10 uM, 100 uM, 1 mM. In other assays, appropriate reaction times can range from 10 minutes to 2 days at temperatures ranging from 4° C. to 37° C. In some instances, the identical reaction can also be carried out using a non-PDZ domain-containing protein as a control (e.g., if the PDZ-domain polypeptide is fusion protein, the fusion partner can be used).
(2) PDZ-ligand complexes can be separated from unbound labeled peptide using a variety of methods known in the art.
(3) The PDZ-ligand complex is detected based on presence of the label on the peptide ligand using a variety of methods and detectors known to one of skill in the art. For example, if the label is fluorescein and the separation is achieved using HPSEC, an in-line fluorescence detector can be used. The binding can also be detected as described supra for the G assay.

T3 sequence (Q6P0Q8 whole entry, the tested form may be a part): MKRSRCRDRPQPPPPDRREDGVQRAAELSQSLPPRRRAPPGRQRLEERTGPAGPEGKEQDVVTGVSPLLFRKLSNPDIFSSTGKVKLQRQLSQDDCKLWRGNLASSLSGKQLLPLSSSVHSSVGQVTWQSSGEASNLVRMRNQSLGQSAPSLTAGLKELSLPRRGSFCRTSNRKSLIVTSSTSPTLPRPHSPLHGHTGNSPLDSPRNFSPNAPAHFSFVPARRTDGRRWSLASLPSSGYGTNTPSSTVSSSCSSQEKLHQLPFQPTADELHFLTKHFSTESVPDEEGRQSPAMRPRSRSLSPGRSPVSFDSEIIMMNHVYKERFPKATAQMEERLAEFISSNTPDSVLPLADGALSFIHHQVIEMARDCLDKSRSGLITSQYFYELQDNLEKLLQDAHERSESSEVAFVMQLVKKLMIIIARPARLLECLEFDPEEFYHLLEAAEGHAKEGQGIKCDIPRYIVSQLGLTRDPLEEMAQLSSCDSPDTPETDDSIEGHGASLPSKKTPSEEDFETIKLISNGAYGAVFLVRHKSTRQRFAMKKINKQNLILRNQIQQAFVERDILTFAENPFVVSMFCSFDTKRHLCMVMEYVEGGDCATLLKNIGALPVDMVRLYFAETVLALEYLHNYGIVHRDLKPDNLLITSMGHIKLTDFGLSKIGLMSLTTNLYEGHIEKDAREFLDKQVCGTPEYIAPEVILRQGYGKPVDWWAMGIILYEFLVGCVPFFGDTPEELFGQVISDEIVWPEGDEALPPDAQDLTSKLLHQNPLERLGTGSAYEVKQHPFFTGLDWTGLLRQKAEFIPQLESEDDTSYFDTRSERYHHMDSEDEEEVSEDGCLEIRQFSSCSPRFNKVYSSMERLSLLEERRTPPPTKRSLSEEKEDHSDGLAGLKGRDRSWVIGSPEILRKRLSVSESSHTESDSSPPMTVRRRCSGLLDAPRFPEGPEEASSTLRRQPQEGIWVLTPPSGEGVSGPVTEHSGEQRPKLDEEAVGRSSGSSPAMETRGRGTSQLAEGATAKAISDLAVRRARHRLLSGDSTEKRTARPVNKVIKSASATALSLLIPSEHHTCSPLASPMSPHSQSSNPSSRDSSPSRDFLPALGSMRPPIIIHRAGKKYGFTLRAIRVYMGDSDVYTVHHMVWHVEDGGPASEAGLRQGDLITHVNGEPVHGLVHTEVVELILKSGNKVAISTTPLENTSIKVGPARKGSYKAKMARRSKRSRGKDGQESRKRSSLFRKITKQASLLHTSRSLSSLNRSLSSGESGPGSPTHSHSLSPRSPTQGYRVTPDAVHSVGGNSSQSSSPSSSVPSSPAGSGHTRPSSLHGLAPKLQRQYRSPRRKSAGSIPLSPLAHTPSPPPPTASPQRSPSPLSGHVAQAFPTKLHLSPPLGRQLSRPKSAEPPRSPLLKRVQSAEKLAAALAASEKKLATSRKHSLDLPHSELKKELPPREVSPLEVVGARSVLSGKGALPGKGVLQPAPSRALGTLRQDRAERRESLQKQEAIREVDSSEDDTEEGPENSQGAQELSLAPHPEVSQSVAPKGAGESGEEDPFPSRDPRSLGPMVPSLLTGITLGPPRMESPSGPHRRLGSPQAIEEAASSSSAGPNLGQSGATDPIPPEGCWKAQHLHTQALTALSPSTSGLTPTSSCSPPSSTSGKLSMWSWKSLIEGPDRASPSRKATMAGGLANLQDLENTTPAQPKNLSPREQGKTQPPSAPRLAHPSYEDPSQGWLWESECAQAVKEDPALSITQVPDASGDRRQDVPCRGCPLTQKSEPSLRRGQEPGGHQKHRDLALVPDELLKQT
T1 sequence (Q13796 whole entry, the tested form may be a part): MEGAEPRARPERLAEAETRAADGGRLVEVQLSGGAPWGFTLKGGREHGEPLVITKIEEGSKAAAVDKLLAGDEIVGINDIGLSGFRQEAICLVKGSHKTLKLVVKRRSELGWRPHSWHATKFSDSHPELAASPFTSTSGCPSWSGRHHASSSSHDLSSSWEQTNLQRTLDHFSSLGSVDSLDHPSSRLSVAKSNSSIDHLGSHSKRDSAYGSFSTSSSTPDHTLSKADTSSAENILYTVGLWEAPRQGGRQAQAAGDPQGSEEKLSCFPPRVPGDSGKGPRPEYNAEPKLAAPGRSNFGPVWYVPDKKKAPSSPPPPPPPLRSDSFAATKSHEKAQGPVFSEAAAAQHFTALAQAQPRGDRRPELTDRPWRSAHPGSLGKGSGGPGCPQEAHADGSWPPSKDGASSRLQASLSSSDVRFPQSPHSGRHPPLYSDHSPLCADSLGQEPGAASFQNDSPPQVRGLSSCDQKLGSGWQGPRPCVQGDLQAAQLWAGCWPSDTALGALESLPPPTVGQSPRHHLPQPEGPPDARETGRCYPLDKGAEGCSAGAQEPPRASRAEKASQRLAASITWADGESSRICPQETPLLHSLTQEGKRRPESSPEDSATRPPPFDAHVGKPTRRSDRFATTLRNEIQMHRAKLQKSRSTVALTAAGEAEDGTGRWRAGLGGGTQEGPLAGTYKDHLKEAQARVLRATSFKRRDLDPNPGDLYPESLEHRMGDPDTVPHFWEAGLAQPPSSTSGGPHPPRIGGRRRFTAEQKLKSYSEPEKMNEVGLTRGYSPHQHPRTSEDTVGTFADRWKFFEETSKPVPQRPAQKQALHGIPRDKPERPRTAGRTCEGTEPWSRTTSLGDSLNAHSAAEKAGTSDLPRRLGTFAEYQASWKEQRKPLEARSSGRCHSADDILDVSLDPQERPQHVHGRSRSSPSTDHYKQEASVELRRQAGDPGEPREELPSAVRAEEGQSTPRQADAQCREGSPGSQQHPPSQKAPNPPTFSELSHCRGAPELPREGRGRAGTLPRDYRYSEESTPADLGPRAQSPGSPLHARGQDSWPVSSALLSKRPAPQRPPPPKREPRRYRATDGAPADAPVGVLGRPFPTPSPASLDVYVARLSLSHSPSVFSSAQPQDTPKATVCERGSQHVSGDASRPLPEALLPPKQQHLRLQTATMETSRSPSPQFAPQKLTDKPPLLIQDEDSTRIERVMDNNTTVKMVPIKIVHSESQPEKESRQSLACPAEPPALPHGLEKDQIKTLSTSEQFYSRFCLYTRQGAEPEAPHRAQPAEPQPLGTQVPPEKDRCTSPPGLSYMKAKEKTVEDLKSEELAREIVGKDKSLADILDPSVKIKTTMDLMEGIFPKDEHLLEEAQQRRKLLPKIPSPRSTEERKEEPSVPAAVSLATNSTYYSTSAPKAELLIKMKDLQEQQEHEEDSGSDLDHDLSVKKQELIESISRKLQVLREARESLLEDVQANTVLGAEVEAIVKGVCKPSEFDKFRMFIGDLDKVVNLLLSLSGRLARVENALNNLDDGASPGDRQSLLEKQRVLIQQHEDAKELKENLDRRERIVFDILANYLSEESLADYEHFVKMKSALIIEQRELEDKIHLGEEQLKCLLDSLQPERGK

Compound	Classification [1]	Classification [2]	Classification [3]	Classification ([4]; PDZ KIAA807)	Classification ([4]; PDZ KIAA0807(S), PDZ Domain 1)	Classification [5]	Classification ([4]; PDZ KIAA807, PDZ Domain not given)	Classification [6]	Classification [7]	Kd [8]
DAKLKSDGTIAAITEKETHF (Biotin-DAKLKSDGTIAAITEKETHF) [GABA transporter 3]	1 (A450 nm 0-1)	1 (A450 nm 0-1)	1 (A450 nm 0-1)	1 (A450 nm 0-1)	1 (A450 nm 0-1)	1 (A450 nm 0-1)	–	–	–	–
CC[C@H](C)[C@H](NC(=O)[C@H](CO)NC(=O)[C@@H](NC(=O)CNC(=O)[C@H](CCCNC(=N)N)NC(=O)[C@H](CC(=O)O)NC(=O)[C@@H]1CCCN1C(=O)[C@H](CC(=O)O)NC(=O)[C@H](CC(N)=O)NC(=O)CNC(=O)[C@H](CC(C)C)NC(=O)[C@H](CC(N)=O)NC(=O)[C@H](CC(C)C)NC(=O)CNC(=O)[C@H](CC(C)C)NC(=O)[C@@H](NC(=O)[C@@H]1CCCN1C(=O)[C@@H](NC(=O)[C@@H]1CCCN1C(=O)[C@H](CCC(N)=O)NC(=O)CCCC[C@@H]1SC[C@@H]2NC(=O)N[C@@H]21)[C@@H](C)O)[C@@H](C)O)[C@@H](C)O)C(=O)O [GluR delta-2] (Biotin-QPTPTLGLNLGNDPDRGTSI-OH; C-terminus assumed)	–	–	–	–	4 (A450 nm 3-4)	–	3 (A450 nm 2-3)	2 (A450 nm 1-2)	2 (A450 nm 1-2)	4 µM
